Results as given in ChEMBL document CHEMBL5465560, “Selectivity Literature for EUbOPEN Chemogenomic Library” (2024).
Blank lines part the entries; values can stand above or below the compound they belong to.

Assays:
[1] = biological target: Phosphatidylinositol 4-kinase alpha (Homo sapiens, UniProt P42356); experiment: Selectivity interaction (Adapta Assay) EUB0001632a PI4KA; conditions: at 10 µM
Aurora kinase B = Aurora kinase B (Homo sapiens, UniProt Q96GD4); experiment: Selectivity interaction (ActivX KiNativ screen (kinase selectivity in THP-1 cell lysates)) EUB0000639a AURKB; assay type: subcellular; conditions: lysate, at 0.04 µM
[2] = biological target: T1, Histone-arginine methyltransferase CARM1 (Homo sapiens, UniProt Q86X55); experiment: Selectivity interaction (Western Blot (dimethylation of BAF155 (BAF155me2a/BAF155) in U266B1 cells)) EUB0000255b CARM1; assay type: cell-based, U-266
T1 sequence (Q86X55 whole entry): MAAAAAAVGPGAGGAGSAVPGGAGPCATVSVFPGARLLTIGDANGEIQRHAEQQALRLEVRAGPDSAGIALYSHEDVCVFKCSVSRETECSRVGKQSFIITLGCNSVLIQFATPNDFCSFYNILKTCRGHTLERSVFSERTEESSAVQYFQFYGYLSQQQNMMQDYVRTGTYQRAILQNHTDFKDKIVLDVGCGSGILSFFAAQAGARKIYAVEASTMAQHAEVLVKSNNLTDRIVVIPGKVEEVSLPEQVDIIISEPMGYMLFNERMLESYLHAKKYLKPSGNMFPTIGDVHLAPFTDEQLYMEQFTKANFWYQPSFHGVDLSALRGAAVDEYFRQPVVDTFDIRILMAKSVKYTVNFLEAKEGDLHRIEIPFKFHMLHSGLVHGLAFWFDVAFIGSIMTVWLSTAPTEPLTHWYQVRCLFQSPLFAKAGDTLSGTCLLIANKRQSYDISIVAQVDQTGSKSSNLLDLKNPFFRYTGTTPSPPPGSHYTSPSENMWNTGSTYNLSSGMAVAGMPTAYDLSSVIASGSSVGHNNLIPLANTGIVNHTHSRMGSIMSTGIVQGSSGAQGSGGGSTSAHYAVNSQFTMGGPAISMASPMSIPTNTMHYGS

[3] = biological target: T2, Histone-lysine N-methyltransferase EHMT1 (Homo sapiens) (UniProt Q9H9B1); experiment: Selectivity interaction (Methyltransferase screen (radiometric assays, panel of 8 PRMTs, 21 protein lysine methyltransferases, 3 DNA methyltransferases, and one RNA methyltransferase)) EUB0000271b EHMT1
T2 sequence (whole entry): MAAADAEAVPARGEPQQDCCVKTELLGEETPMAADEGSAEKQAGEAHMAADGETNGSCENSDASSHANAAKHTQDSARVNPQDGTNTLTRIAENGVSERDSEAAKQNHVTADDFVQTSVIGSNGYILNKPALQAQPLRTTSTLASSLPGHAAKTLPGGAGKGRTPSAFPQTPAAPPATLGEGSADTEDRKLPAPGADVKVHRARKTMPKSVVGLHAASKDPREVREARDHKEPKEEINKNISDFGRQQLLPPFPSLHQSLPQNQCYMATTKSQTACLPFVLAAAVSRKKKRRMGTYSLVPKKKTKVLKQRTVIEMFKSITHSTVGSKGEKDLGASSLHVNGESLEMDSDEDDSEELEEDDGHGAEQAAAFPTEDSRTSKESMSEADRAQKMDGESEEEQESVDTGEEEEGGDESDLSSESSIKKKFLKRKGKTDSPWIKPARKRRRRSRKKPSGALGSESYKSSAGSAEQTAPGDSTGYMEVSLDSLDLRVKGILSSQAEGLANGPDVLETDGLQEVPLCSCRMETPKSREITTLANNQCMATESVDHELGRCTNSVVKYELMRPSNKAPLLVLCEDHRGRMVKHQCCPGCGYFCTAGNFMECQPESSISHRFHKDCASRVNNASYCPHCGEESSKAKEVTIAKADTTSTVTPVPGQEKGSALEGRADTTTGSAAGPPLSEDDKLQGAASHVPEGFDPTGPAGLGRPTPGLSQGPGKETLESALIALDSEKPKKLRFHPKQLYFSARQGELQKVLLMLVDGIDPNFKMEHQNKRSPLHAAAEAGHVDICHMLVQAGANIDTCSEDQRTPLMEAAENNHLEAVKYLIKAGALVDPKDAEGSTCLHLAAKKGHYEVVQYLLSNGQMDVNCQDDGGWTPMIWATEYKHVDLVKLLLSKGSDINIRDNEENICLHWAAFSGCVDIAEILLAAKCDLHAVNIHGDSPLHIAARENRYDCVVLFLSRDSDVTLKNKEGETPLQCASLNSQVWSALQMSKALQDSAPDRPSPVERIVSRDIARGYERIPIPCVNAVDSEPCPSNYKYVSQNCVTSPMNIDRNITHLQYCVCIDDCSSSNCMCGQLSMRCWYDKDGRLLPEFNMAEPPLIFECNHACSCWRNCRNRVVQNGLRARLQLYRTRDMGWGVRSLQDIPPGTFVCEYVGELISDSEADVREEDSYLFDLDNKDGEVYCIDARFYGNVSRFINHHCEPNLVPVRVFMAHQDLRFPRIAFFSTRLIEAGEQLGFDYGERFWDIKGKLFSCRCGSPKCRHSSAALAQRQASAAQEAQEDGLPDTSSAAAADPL

[4] = Selectivity interaction (KinomeScan (DiscoverX)) EUB0001049a CDK2H; conditions: at 1 µM
[5] = biological target: NT-3 growth factor receptor (Homo sapiens, UniProt Q16288); experiment: Selectivity interaction (KinomeScan (DiscoverX)) EUB0000092b NTRK3; conditions: at 10 µM
[6] = biological target: T3, Inhibitor of nuclear factor kappa-B kinase subunit epsilon (Homo sapiens) (UniProt Q14164); conditions: at 10 µM
T3 sequence (whole entry): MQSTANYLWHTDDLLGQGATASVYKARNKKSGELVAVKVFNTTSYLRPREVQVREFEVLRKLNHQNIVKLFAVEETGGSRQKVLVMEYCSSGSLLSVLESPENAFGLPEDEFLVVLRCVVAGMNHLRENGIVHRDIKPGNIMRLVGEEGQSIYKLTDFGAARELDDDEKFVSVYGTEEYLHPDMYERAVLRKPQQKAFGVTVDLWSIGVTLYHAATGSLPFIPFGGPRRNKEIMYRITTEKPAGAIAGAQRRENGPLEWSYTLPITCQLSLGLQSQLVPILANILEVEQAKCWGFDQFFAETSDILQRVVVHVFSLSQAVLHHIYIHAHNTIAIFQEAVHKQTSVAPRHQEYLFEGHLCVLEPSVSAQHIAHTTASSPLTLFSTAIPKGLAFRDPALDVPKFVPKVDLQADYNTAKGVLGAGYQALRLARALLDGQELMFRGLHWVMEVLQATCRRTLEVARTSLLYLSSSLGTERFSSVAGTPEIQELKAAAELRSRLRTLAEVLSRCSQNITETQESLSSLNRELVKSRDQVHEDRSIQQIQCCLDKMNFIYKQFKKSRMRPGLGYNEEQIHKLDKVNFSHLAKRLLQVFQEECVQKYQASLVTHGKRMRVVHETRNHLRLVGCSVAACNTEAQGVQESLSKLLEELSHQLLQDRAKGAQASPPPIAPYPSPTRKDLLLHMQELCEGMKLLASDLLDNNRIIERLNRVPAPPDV

Chain of NT-3 growth factor receptor (Q16288 32-839 limits assumed): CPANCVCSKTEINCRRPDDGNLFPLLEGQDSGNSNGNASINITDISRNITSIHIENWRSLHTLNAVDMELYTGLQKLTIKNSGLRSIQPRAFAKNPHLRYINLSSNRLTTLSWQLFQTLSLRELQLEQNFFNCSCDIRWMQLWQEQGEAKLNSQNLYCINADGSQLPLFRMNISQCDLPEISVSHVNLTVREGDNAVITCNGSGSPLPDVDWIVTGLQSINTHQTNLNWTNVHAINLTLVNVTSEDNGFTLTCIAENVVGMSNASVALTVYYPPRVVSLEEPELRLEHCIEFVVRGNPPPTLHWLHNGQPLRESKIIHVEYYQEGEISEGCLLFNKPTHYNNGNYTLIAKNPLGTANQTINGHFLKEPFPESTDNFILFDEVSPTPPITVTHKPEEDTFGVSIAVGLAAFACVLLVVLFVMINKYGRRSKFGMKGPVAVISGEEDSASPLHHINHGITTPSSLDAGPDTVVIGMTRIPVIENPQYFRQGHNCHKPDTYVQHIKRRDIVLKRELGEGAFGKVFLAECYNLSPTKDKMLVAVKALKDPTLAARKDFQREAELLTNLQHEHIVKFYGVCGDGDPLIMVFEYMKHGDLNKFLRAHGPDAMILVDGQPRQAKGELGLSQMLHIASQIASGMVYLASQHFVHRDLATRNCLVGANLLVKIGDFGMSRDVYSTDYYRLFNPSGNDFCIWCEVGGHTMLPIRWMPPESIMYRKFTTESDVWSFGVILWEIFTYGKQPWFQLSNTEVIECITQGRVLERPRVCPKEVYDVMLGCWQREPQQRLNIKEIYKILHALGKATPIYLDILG
Chain of Phosphatidylinositol 4-kinase alpha (P42356 whole entry, looked up): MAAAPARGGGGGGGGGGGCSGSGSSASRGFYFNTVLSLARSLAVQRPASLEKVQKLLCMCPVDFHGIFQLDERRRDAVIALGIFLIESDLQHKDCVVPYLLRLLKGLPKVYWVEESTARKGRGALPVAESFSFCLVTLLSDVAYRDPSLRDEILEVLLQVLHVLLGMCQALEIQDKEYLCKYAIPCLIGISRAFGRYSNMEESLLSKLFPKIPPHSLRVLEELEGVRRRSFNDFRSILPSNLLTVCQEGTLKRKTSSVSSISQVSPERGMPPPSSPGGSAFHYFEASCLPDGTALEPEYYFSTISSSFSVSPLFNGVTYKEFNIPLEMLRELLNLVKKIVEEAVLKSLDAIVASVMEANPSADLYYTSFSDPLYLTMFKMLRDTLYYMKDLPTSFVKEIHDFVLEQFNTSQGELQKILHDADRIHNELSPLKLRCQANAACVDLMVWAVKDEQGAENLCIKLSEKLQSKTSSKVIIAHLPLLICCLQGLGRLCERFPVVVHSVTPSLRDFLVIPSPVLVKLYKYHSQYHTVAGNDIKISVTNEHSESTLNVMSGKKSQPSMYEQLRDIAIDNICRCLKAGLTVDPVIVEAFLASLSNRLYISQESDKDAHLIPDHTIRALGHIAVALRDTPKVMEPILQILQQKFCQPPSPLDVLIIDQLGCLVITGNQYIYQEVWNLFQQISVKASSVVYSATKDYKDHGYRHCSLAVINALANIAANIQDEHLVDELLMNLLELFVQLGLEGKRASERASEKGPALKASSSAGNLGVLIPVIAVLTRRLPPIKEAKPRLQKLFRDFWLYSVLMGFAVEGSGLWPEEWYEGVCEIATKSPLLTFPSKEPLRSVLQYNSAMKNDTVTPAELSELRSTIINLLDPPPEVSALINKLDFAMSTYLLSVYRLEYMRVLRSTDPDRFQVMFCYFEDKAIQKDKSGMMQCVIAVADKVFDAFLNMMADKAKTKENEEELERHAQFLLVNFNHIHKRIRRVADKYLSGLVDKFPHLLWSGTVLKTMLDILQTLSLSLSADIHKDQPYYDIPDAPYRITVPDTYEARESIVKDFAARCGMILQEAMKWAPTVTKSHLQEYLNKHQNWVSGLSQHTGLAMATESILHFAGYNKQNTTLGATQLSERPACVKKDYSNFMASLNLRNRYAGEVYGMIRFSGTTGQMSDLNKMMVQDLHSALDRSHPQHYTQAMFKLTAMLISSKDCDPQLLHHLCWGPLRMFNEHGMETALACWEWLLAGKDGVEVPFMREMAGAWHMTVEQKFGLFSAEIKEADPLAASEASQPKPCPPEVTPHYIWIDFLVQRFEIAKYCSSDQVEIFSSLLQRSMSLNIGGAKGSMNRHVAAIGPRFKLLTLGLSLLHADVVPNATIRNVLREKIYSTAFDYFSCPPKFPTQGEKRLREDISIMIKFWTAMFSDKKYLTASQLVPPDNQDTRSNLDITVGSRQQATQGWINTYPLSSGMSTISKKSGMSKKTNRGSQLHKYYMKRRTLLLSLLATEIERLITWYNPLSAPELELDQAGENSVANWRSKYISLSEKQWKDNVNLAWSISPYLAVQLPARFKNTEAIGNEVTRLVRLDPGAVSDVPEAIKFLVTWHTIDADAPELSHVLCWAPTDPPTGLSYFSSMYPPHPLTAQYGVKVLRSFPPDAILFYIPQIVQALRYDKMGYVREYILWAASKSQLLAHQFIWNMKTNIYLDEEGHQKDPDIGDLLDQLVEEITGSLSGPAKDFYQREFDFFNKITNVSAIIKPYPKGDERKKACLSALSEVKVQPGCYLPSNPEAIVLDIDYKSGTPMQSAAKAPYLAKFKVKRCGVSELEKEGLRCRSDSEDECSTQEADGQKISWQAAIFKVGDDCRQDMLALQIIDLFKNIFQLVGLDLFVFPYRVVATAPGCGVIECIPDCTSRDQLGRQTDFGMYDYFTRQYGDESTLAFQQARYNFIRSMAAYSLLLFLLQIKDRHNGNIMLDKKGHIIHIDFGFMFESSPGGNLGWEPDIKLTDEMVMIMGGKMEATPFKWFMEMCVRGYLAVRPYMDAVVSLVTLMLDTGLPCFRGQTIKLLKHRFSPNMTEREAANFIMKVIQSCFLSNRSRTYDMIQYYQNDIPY
Chain of Aurora kinase B (Q96GD4 whole entry): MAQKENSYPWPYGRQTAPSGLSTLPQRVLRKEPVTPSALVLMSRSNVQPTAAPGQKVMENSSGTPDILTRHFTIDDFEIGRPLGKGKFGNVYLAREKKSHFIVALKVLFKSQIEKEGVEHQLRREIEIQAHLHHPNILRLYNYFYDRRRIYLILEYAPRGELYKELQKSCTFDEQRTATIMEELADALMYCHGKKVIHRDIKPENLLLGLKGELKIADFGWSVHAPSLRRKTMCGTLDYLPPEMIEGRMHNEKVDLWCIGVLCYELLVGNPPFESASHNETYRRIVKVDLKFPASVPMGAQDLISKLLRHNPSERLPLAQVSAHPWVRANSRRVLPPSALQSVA

% of inhibition [1]: -3.32%
Structure (SMILES): Cn1cc(-n2cnc3c(NCc4nc5cc(Cl)c(Cl)cc5[nH]4)nc(N4CCOCC4)nc32)cn1

% of inhibition (Aurora kinase B): -1.3%
Structure (SMILES): CC[C@@H]1[C@H](F)C(=O)N[C@@H]1COc1nccc2cc(C(N)=O)c(OC)cc12 [ZIMLOVISERTIB]

Structure (SMILES): COCCN1CCC(c2cc(CN(C)C(=O)c3cccc(Oc4ccccc4)c3)ccn2)CC1
IC50 [2]: > 3 nM

Structure (SMILES): Cc1cc(C)cc([C@@H]2c3cc(C)ccc3NC(=O)CN2C(=O)c2ccc(Br)s2)c1
% of activity ([3]; at 1 µM): 99% | % of activity ([3]; at 10 µM): 99%

Structure (SMILES): COc1cc(Nc2nc(C)cc(-c3cnn4nc(OC)ccc34)n2)cc(C(F)(F)F)c1
% of control [4]: 100%

Structure (SMILES): CCC(=O)N1CCN(c2ccc(-n3c(=O)ccc4cnc5ccc(-c6cnc7ccccc7c6)cc5c43)cc2C(F)(F)F)CC1
% of control [5]: 100%

Structure (SMILES): Cc1cc([C@@H](C)Nc2ccccc2C(=O)O)c2nc(N3CCOCC3)cc(=O)n2c1 [AZD-6482]
% of control [6]: 85%
